Experimental data reported in US6969730B2, “Amines as histamine-3 receptor ligands and their therapeutic applications” (Abbott Laboratories, priority 2001, dated 2005).

Target: T1, histamine-3 receptors (H3 receptor) (Rattus norvegicus, UniProt Q9QYN8)
T1 construct: from tissue; host or cells: male Sprague-Dawley rat brain cortex membranes
Assay: (3H)-N-α-methylhistamine binding to rat cortical membranes (histamine-3 receptor ligands)
Conditions: male Sprague-Dawley rat brain cortical membranes; (3H)-N-α-methylhistamine ~0.6 nM; 30 minutes at 25° C.; Cheng-Prusoff
Description: Briefly, male Sprague-Dawley rat brain cortices were homogenized (1 g tissue/10 mL buffer) in 50 mM Tris-HCl/5 mM EDTA containing protease inhibitor cocktail (Calbiochem) using a polytron set at 20,500 rpm. Homogenates were centrifuged for 20 minutes at 40,000×g. The supernatant was decanted, and pellets were weighed. The pellet was resuspended by polytron homogenization in 40 mL 50 mM Tris-HCl/5 mM EDTA with protease inhibitors and centrifuged for 20 minutes at 40,000×g. […] Rat cortical membranes (12 mg wet weight/tube) were incubated with (^3H)-N-α-methylhistamine (˜0.6 nM) with or without H3 receptor antagonists in a total incubation volume of 0.5 mL of 50 mM Tris-HCl/5 mM EDTA (pH 7.7). Test compounds were dissolved in DSMO to provide a 20 mM solution, serially diluted and then added to the incubation mixture prior to initiating the incubation assay by addition of the membranes. Thioperamide (3 μM) was used to determine nonspecific binding. Binding incubations were conducted for 30 minutes at 25° C. and terminated by addition of 2 mL of ice cold 50 mM Tris-HCl (pH 7.7) and filtration through 0.3% polyethylenimine-soaked Unifilter plates (Packard). These filters were washed 4 additional times with 2 mL of ice-cold 50 mM Tris-HCl and dried for 1 hour. Radioactivity was determined using liquid scintillation counting techniques. Results were analyzed by Hill transformation and Ki values were determined using the Cheng-Prusoff equation.

T1 sequence (Q9QYN8 whole entry): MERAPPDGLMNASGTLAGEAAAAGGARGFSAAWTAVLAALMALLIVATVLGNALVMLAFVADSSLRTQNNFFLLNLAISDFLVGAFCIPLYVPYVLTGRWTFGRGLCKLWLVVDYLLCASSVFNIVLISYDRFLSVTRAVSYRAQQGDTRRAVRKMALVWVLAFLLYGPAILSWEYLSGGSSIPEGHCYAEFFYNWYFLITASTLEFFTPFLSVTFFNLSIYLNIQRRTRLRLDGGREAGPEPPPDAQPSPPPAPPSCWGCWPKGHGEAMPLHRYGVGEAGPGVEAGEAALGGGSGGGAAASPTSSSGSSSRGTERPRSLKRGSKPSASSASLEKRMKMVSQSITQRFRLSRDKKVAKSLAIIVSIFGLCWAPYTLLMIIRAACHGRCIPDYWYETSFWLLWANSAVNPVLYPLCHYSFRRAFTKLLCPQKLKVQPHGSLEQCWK

| Compound | Ki [µM] |
| --- | --- |
| 3-{[3-(2-{2-[(2R)-2-methylpyrrolidin-1-yl]ethyl}-1-benzofuran-5-yl)-1,2,4-oxadiazol-5-yl]methyl}benzonitrile [Example 93] | 0.006 |
| 4-(2-{2-[-2,6-dimethylpiperidinyl]ethyl}-1-benzofuran-5-yl)benzonitrile [Example 11] | 0.0193 |
| 4-(6-methyl-2-{2-[(2R)-2-methyl-1-pyrrolidinyl]ethyl}-1-benzofuran-5-yl)benzonitrile and 4-(4-methyl-2-{2-[(2R)-2-methyl-1-pyrrolidinyl]ethyl}-1-benzofuran-5-yl)benzonitrile [Example 108] | 0.008 |
| 4-[4-(2-{2-[-2,6-dimethylpiperidinyl]ethyl}-1-benzofuran-5-yl)benzoyl]morpholine [Example 29] | 0.00846 |
| N#Cc1ccc(-c2ccc3oc(CCN4CCCC4)cc3c2)cc1 [Example 2, 4-{2-[2-(1-pyrrolidinyl)ethyl]-1-benzofuran-5-yl}benzonitrile] | 0.0468 |
| N#Cc1ccc(-c2ccc3oc(CCN4CCCCC4)cc3c2)cc1 [Example 4, 4-{2-[2-(1-piperidinyl)ethyl]-1-benzofuran-5-yl}benzonitrile] | 0.0588 |
| CC1CCCCN1CCc1cc2cc(-c3ccc(C#N)cc3)ccc2o1 (stereo not shown) [Example 6, 4-{2-[2-(2-methyl-1-piperidinyl)ethyl]-1-benzofuran-5-yl}benzonitrile] | 0.0449 |
| COC(=O)[C@@H]1CCCN1CCc1cc2cc(-c3ccc(C#N)cc3)ccc2o1 [Example 15, 4-(2-{2-[2-pyrrolidinemethyl carboxylate]ethyl}-1-benzofuran-5-yl)benzonitrile] | ≥ 1 |
| O=C(c1ccc(-c2ccc3oc(CCN4CCC[C@H]4CO)cc3c2)cc1)N1CCOCC1 [Example 34] | 0.00689 |
| C[C@@H]1CCC[C@H](C)N1CCc1cc2cc(-c3ccc(C(=O)N4CCOCC4)cn3)ccc2o1 [Example 50, 4-{[6-(2-{2-[-2,6-dimethylpiperidinyl]ethyl}-1-benzofuran-5-yl)-3-pyridinyl]carbonyl}morpholine] | 0.0371 |
| O=C(c1ccc(-c2ccc3oc(CCN4CCC5(CC4)OCCO5)cc3c2)nc1)N1CCOCC1 [Example 60, 8-(2-{5-[5-(4-morpholinylcarbonyl)-2-pyridinyl]-1-benzofuran-2-yl}ethyl)-1,4-dioxa-8-azaspiro[4.5]decane] | ≥ 1 |
| C=CCNCCc1cc2cc(-c3ccc(C(=O)N4CCOCC4)cn3)ccc2o1 [Example 63, N-allyl-N-(2-{5-[5-(4-morpholinylcarbonyl)-2-pyridinyl]-1-benzofuran-2-yl}ethyl)amine] | ≥ 1 |
| O=C(c1ccc(-c2ccc3oc(CCNCCCO)cc3c2)nc1)N1CCOCC1 [Example 64, 3-[(2-{5-[5-(4-morpholinylcarbonyl)-2-pyridinyl]-1-benzofuran-2-yl}ethyl)amino]-1-propanol] | ≥ 1 |
| C[C@@H]1CCCN1CCc1cc2c(-c3ccc(C#N)cc3)cccc2o1 [Example 85, 4-(2-{2-[(2R)-2-methyl-1-pyrrolidinyl]ethyl}-1-benzofuran-4-yl)benzonitrile] | 0.042 |
| C[C@@H]1CCCN1CCc1cc2ccc(-c3ccc(C#N)cc3)cc2o1 [Example 86, 4-(2-{2-[(2R)-2-methyl-1-pyrrolidinyl]ethyl}-1-benzofuran-6-yl)benzonitrile] | 0.0035 |
| C[C@@H]1CCCN1CCc1cc2cc(-c3noc(Cc4cccs4)n3)ccc2o1 [Example 87, 3-(2-{2-[(2R)-2-methylpyrrolidin-1-yl]ethyl}-1-benzofuran-5-yl)-5-(thien-2-ylmethyl)-1,2,4-oxadiazole] | 0.016 |
| C[C@@H]1CCCN1CCc1cc2cc(-c3noc(-c4ccc(C#N)cc4)n3)ccc2o1 [Example 88, 4-[3-(2-{2-[(2R)-2-methylpyrrolidin-1-yl]ethyl}-1-benzofuran-5-yl)-1,2,4-oxadiazol-5-yl]benzonitrile] | 0.064 |
| C[C@@H]1CCCN1CCc1cc2cc(-c3noc(-c4ccc(Cl)cc4)n3)ccc2o1 [Example 89, 5-(4-chlorophenyl)-3-(2-{2-[(2R)-2-methylpyrrolidin-1-yl]ethyl}-1-benzofuran-5-yl)-1,2,4-oxadiazole] | 0.012 |
| C[C@@H]1CCCN1CCc1cc2cc(-c3noc(-c4ccccc4Cl)n3)ccc2o1 [Example 90, 5-(2-chlorophenyl)-3-(2-{2-[(2R)-2-methylpyrrolidin-1-yl]ethyl}-1-benzofuran-5-yl)-1,2,4-oxadiazole] | 0.021 |

| Compound | Ki [µM] |
| --- | --- |
| C[C@@H]1CCCN1CCc1cc2cc(-c3noc(Cc4ccc(F)cc4)n3)ccc2o1 [Example 91, 5-(4-fluorobenzyl)-3-(2-{2-[(2R)-2-methylpyrrolidin-1-yl]ethyl}-1-benzofuran-5-yl)-1,2,4-oxadiazole] | 0.01 |
| COc1ccc(Cc2nc(-c3ccc4oc(CCN5CCC[C@H]5C)cc4c3)no2)cc1 [Example 92, 5-(4-methoxybenzyl)-3-(2-{2-[(2R)-2-methylpyrrolidin-1-yl]ethyl}-1-benzofuran-5-yl)-1,2,4-oxadiazole] | 0.015 |
| C[C@@H]1CCCN1CCc1cc2cc(-c3noc(-c4ccccc4)n3)ccc2o1 [Example 94, 3-(2-{2-[(2R)-2-methylpyrrolidin-1-yl]ethyl}-1-benzofuran-5-yl)-5-phenyl-1,2,4-oxadiazole] | 0.016 |
| C[C@@H]1CCCN1CCc1cc2cc(-c3noc(-c4ccc(F)cc4)n3)ccc2o1 [Example 95, 5-(4-fluorophenyl)-3-(2-{2-[(2R)-2-methylpyrrolidin-1-yl]ethyl}-1-benzofuran-5-yl)-1,2,4-oxadiazole] | 0.012 |
| C[C@@H]1CCCN1CCc1cc2cc(-c3noc(-c4ccc(F)c(Cl)c4)n3)ccc2o1 [Example 96, 5-(3-chloro-4-fluorophenyl)-3-(2-{2-[(2R)-2-methylpyrrolidin-1-yl]ethyl}-1-benzofuran-5-yl)-1,2,4-oxadiazole] | 0.223 |
| C[C@@H]1CCCN1CCc1cc2cc(-c3noc(CCl)n3)ccc2o1 [Example 97, 5-(chloromethyl)-3-(2-{2-[(2R)-2-methylpyrrolidin-1-yl]ethyl}-1-benzofuran-5-yl)-1,2,4-oxadiazole] | 0.0014 |
| CCCc1nc(-c2ccc3oc(CCN4CCC[C@H]4C)cc3c2)no1 [Example 98, 3-(2-{2-[(2R)-2-methylpyrrolidin-1-yl]ethyl}-1-benzofuran-5-yl)-5-propyl-1,2,4-oxadiazole] | 0.0007 |
| CCc1nc(-c2ccc3oc(CCN4CCC[C@H]4C)cc3c2)no1 [Example 99, 5-ethyl-3-(2-{2-[(2R)-2-methylpyrrolidin-1-yl]ethyl}-1-benzofuran-5-yl)-1,2,4-oxadiazole] | 0.0036 |
| Cc1nc(-c2ccc3oc(CCN4CCC[C@H]4C)cc3c2)no1 [Example 100, 5-methyl-3-(2-{2-[(2R)-2-methylpyrrolidin-1-yl]ethyl}-1-benzofuran-5-yl)-1,2,4-oxadiazole] | 0.006 |
| C[C@@H]1CCCN1CCc1oc2ccc(-c3ccc(C#N)cc3)cc2c1Br [Example 101, 4-(3-bromo-2-{2-[(2R)-2-methylpyrrolidin-1-yl]ethyl}-1-benzofuran-5-yl)benzonitrile] | 0.0034 |
| C[C@@H]1CCCN1CCc1oc2ccc(-c3ccc(C#N)cc3)cc2c1-c1ccco1 [Example 102, 4-(3-(2-furyl)-2-{2-[(2R)-2-methylpyrrolidin-1-yl]ethyl}-1-benzofuran-5-yl)benzonitrile] | 0.018 |
| C[C@@H]1CCCN1CCc1oc2ccc(-c3ccc(C#N)cc3)cc2c1-c1cccnc1 [Example 103, 4-[2-{2-[(2R)-2-methyl-1-pyrrolidinyl]ethyl}-3-(3-pyridinyl)-1-benzofuran-5-yl]benzonitrile] | 0.013 |
| C[C@@H]1CCCN1CCc1oc2ccc(-c3ccc(C#N)cc3)cc2c1-c1ccsc1 [Example 104, 4-[2-{2-[(2R)-2-methyl-1-pyrrolidinyl]ethyl}-3-(3-thienyl)-1-benzofuran-5-yl]benzonitrile] | 0.041 |
| C[C@@H]1CCCN1CCc1oc2ccc(-c3ccc(C#N)cc3)cc2c1-c1ccsc1C=O [Example 105, 4-(3-(2-formyl-3-thienyl)-2-{2-[(2R)-2-methyl-1-pyrrolidinyl]ethyl}-1-benzofuran-5-yl)benzonitrile] | 0.006 |
| Cc1cc(-c2ccc3oc(CCN4CCC[C@H]4C)cc3c2)ccc1C#N [Example 106, 2-methyl-4-(2-{2-[(2R)-2-methyl-1-pyrrolidinyl]ethyl}-1-benzofuran-5-yl)benzonitrile] | 0.0023 |
| Cc1cc(C#N)ccc1-c1ccc2oc(CCN3CCC[C@H]3C)cc2c1 [Example 107, 3-methyl-4-(2-{2-[(2R)-2-methyl-1-pyrrolidinyl]ethyl}-1-benzofuran-5-yl)benzonitrile] | 0.008 |
| Cc1cc(-c2ccc(C#N)cc2)cc2cc(CCN3CCC[C@H]3C)oc12 [Example 109, 4-(7-methyl-2-{2-[(2R)-2-methyl-1-pyrrolidinyl]ethyl}-1-benzofuran-5-yl)benzonitrile] | 0.01 |
| C[C@@H]1CCCN1CCc1cc2cc(-c3ccc(C#N)cc3)cc(F)c2o1 [Example 110, 4-(7-fluoro-2-{2-[(2R)-2-methyl-1-pyrrolidinyl]ethyl}-1-benzofuran-5-yl)benzonitrile] | 0.006 |
